The text below walks through data of US9193744B2, “Heterocyclic nuclear hormone receptor modulators” (AbbVie Inc., priority 2012, dated 2015).

The target in test [1] is T1, Glucocorticoid Receptor (GR) (Homo sapiens, UniProt P04150).
T1 construct: purchased Invitrogen P2893
T1 sequence (P04150 1-777): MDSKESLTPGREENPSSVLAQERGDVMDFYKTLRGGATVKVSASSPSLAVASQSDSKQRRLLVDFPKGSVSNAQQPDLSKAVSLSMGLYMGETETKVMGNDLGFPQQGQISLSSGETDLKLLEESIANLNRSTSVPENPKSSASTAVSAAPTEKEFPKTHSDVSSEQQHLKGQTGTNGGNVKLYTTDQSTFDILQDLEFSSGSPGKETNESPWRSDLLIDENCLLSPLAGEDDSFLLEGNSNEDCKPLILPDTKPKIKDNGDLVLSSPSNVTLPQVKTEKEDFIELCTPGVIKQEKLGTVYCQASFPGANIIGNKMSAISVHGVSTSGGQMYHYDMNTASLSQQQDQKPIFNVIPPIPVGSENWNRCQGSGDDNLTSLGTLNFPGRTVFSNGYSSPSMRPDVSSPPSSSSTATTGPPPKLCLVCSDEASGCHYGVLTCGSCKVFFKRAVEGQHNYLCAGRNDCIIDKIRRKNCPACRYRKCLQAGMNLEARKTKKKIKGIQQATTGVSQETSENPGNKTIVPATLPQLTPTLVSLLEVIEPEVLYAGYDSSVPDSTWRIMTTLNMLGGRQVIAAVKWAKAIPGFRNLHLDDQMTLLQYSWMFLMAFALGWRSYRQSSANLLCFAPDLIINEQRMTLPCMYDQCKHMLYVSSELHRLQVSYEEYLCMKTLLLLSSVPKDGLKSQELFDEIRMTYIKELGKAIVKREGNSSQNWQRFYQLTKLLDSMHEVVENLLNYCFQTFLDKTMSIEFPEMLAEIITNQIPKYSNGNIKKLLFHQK
The test can be described thus: GR Fluorescence Polarization Assay (PolarScreen Glucocorticoid Receptor Competitor Assay, Red). Conditions: fluorescence polarization binding ranges. The procedure: Fluorescence polarization assays were carried out using the PolarScreen™ Glucocorticoid Receptor Competitor Assay, Red from Invitrogen (P2893). The assay buffer was prepared according to the manufacturer's protocol and used to dilute the fluorescent glucocorticoid and GR. Compounds were prepared and serial diluted 1:4 in DMSO. Compound, fluorescent glucocorticoid and GR were added in a final volume of 20 μL and incubated overnight at 4° C. Fluorescent polarization was measured on the PerkinElmer Envision®. Fluorescence polarization binding ranges measured using GR Fluorescence Polarization Assay: […]
For orientation: Fluorescence polarisation rises when a labelled molecule tumbles more slowly, as on binding a larger partner.

Test [2] deals with IL-6. The test can be described thus: A549 Cell Assay to Measure Inflammation Markers (inhibition of IL-1β-induced IL-6). The test is classed as cell-based. The following applies: A549 cells, read-out: A549 cell assay. As to the method:
A549 Cell Assay to Measure Inflammation Markers
A549 cells were seeded (3E4 cells/well) in 96-well assay plates in culture medium (100 μL/well., F-12 K base media, supplemented with 10% FBS and 100 μ/mL-100 μg/mL Pen-Strep.) After overnight culture in an incubator set to 37° C., 4.9% CO2, and 90% humidity, media was removed from adherent cells by aspiration and replaced with 100 μL/well Assay Medium (F-12 K base media supplemented with 5% charcoal stripped calf sera and 100 U/mL-100 μg/mL Pen-Strep.) Compounds were prepared in DMSO and serial diluted (1:3, 1:4, or 1:5) with DMSO in Dilution Plate(s) to give 10 dilution points for each compound tested. Further dilution (1:250) of compound was made into assay medium and 50 μL/well diluted drug or DMSO/media control was applied to cells. After a 1 h pre-incubation in a temperature, CO2, and humidity controlled incubator, set to 37° C., 50 μL/well of 4 ng/mL IL-1β diluted in assay media, was applied to cultures. Assay plates, with a final volume of 200 μL/well and final concentrations of 0.1% DMSO and 1 ng/mL IL-1β were returned to incubator for a four h incubation period. Next, plates were spun at 183 g (1000 rpm in Beckman/Coulter Allegra 6KR centrifuge) for 10 min. Cell-free supernatant (150 μL/well) was collected and IL-6 was measured by MSD kit, following protocol of manufacturer, and using MSD SECTOR Imager 6000 instrument. Potency of compounds to inhibit IL-6 was determined using the percent reduction of measured IL-6 in wells with compound compared to control wells without drug, and relative to (100% inhibition) positive control compound of 1 μM prednisolone. Results were represented as IC50 and Emax values. To verify that viable cell numbers were similar across plate(s), and not confounding compound IC50 data interpretation, the remaining 50 μL/well of cells and media (after removal of supernatant) were used to run Cell Titer-Glo Assay per directions of manufacturer.

Read-outs that look alike come from different tables or passages of the source. Bounds are passed on as bounds.

As to `CC[C@@]12CC[C@](O)(COC)C[C@@H]1CCCc1cc3c(cnn3-c3ccnc(C)c3)cc12` (racemic) [Example 45], the IC50 in test [1] and in test [2] was below 0.1 µM throughout.

On to `OC[C@@]12CC[C@](O)(C(F)(F)F)C[C@H]1CCCc1cc3c(cnn3-c3ccc(F)cc3)cc12` (racemic) [Example 80], for which the IC50 in test [1] and in test [2] (Homo sapiens) was below 0.1 µM each time.

For the compound `CC[C@@]12CC(=O)[C@](C)(O)C[C@@H]1CCCc1cc3c(cnn3-c3ccc(F)cc3)cc12` (racemic) [Example 100, rac-(3R,4aS,12bR)-12b-Ethyl-9-(4-fluorophenyl)-3-hydroxy-3-methyl-1,3,4,4a,5,6,7,12b-octahydrobenzo[6,7]cyclohepta[1,2-f]indazol-2(9H)-one], the IC50 in test [1] and in test [2] (Homo sapiens) was below 0.1 µM each time.

For `CC[C@@]12CC[C@](O)(COC)C[C@@H]1CCOc1cc3c(cnn3-c3ccc(F)cc3)cc12` (racemic) [Example 129], the IC50 in test [1] and in test [2] was below 0.1 µM throughout.

Turning to `CC[C@@]12CC[C@](O)(COC)C[C@@H]1CCOc1cc3c(cnn3-c3ccncc3)cc12` (racemic) [Example 132], the IC50 in test [1] and in test [2] (Homo sapiens) was below 0.1 µM throughout.

In turn, `CC[C@@]12CC[C@](O)(COC)C[C@@H]1CCOc1cc3c(cnn3-c3nnc(C)s3)cc12` (racemic) [Example 139] came in with an IC50 in test [1] of 0.1 to 1 µM.

In the case of `C[C@@]1(O)CC[C@@]2(Cc3ccccn3)c3cc4cnn(-c5ccc(F)cc5)c4nc3CCC[C@H]2C1` (racemic) [Example 148, rac-(3R,4aS,12bS)-9-(4-Fluorophenyl)-3-methyl-12b-(pyridin-2-ylmethyl)-1,2,3,4,4a,5,6,7,9,12b-decahydrobenzo[3,4]cyclohepta[1,2-b]pyrazolo[4,3-e]pyridin-3-ol], the IC50 in test [1] and in test [2] (Homo sapiens) was below 0.1 µM each time.

Consider `CC[C@]12CC[C@](O)(C(F)(F)F)C[C@@H]1CCCc1nc3c(cnn3-c3ccc(F)cc3)cc12` (racemic) [Example 151, rac-(3R,4aS,12bS)-12b-Ethyl-9-(4-fluorophenyl)-3-(trifluoromethyl)-1,2,3,4,4a,5,6,7,9,12b-decahydrobenzo[3,4]cyclohepta[1,2-b]pyrazolo[4,3-e]pyridin-3-ol], for which the values for the IC50 in test [1] and in test [2] (Homo sapiens) were 1 to 10 µM and 0.1 to 1 µM, respectively.

With `CC[C@@]12CC[C@](O)(C(F)(F)F)C[C@H]1CCCc1nc3c(cnn3-c3ccc(F)cc3)cc12` (racemic) [Example 152, rac-(3R,4aR,12bR)-12b-ethyl-9-(4-fluorophenyl)-3-(trifluoromethyl)-1,2,3,4,4a,5,6,7,9,12b-decahydrobenzo[3,4]cyclohepta[1,2-b]pyrazolo[4,3-e]pyridin-3-ol], the IC50 in test [1] and in test [2] (Homo sapiens) was below 0.1 µM in each case.

As for `O[C@@]1(C(F)(F)F)CC[C@@]2(Cc3ccccn3)c3cc4cnn(-c5ccc(F)cc5)c4nc3CCC[C@H]2C1` (racemic) [Example 155, rac-(3R,4aR,12bR)-9-(4-Fluorophenyl)-12b-(pyridin-2-ylmethyl)-3-(trifluoromethyl)-1,2,3,4,4a,5,6,7,9,12b-decahydrobenzo[3,4]cyclohepta[1,2-b]pyrazolo[4,3-e]pyridin-3-ol], the IC50 in test [1] is 0.1 to 1 µM; in test [2] (Homo sapiens), above 10 µM.

With `O[C@]1(C(F)(F)F)CC[C@@]2(Cc3ccccn3)c3cn4cnc(-c5ccc(F)cc5)c4cc3CCC[C@@H]2C1` (racemic) [Example 166, rac-(3R,4aR,13bS)-9-(4-fluorophenyl)-13b-(pyridin-2-ylmethyl)-3-(trifluoromethyl)-2,3,4,4a,5,6,7,13b-octahydro-1H-benzo[3,4]cyclohepta[1,2-d]imidazo[1,5-a]pyridin-3-ol], the IC50 in test [1] and in test [2] (Homo sapiens) was below 0.1 µM in each case.

On to `COC[C@@]1(O)CC[C@@]2(Cc3ccccn3)c3cn4cnc(-c5ccc(F)cc5)c4cc3CCC[C@H]2C1` (racemic) [Example 167, rac-(3R,4aS,13bS)-9-(4-Fluorophenyl)-3-(methoxymethyl)-13b-(pyridin-2-ylmethyl)-2,3,4,4a,5,6,7,13b-octahydro-1H-benzo[3,4]cyclohepta[1,2-d]imidazo[1,5-a]pyridin-3-ol], for which the IC50 in test [1] and in test [2] (Homo sapiens) was below 0.1 µM throughout.

In the case of `O=C(NC1CC1)[C@@]12CC[C@](O)(C(F)(F)F)C[C@H]1CCCc1cc3c(cnn3-c3ccc(F)cc3)cc12` (single isomer, unassigned) [Example 86], the IC50 in test [1] is 0.1 to 1 µM.

The compound `CC[C@]12CC[C@@](O)(COC)C[C@H]1CCOc1cc3c(cnn3-c3ccnc(C)c3)cc12` (single isomer, unassigned) [Example 127] returned an IC50 in test [1] of 0.1 to 1 µM.

In turn, `C[C@]1(O)CC[C@]2(Cc3ccccn3)c3cc4cnn(-c5ccc(F)cc5)c4nc3CCC[C@@H]2C1` (single isomer, unassigned) [Example 150] yielded an IC50 in test [1] of 0.1 to 1 µM.

In test [1], `Cc1cc(-n2ncc3cc4c(cc32)CCC[C@@H]2C[C@@](C)(O)CC[C@]42Cc2ccccn2)ccn1` [Example 61] gave an IC50 of 0.1 to 1 µM.

Turning to `Cc1cc(-n2ncc3cc4c(cc32)CCC[C@H]2C[C@@](O)(CC#N)CC[C@@]42Cc2ccccn2)ccn1` [Example 70], the IC50 in test [2] is below 0.1 µM.

Turning to `CC[C@]12CC[C@@](OP(=O)(O)O)(C(F)(F)F)C[C@@H]1CCCc1cc3c(cnn3-c3ccc(F)cc3)cc12` [Example 101, (3S,4aS,12bS)-12b-Ethyl-9-(4-fluorophenyl)-3-(trifluoromethyl)-1,2,3,4,4a,5,6,7,9,12b-decahydrobenzo[6,7]cyclohepta[1,2-f]indazol-3-yl dihydrogen phosphate], in test [1], the IC50 was in the range of 0.1 to 1 µM.

Take `CC[C@]12CC[C@@](O)(COC)C[C@H]1CCOc1cc3c(cnn3-c3ccnc(OC)c3)cc12` [Example 137]: in test [1], the IC50 fell in the range of 1 to 10 µM.

On to `CC[C@]12CC[C@@](O)(COC)C[C@H]1CCOc1cc3c(cnn3-c3ccnc(C(F)(F)F)c3)cc12` [Example 140], for which the IC50 in test [1] fell in the range of 0.1 to 1 µM.

Take `CC[C@]12CC[C@](C)(O)C[C@H]1CCOc1cc3c(cnn3-c3ccnc(C)c3)cc12` [Example 142]: in test [1], the IC50 fell in the range of 0.1 to 1 µM.

As for `CC[C@]12CC[C@@](O)(CC#N)C[C@H]1CCOc1cc3c(cnn3-c3ccnc(C)c3)cc12` [Example 144], the IC50 in test [1] was in the range of 0.1 to 1 µM.

As to `COC[C@]1(O)CC[C@]2(Cc3ccccn3)c3cc4cnn(-c5ccc(F)cc5)c4nc3CCC[C@H]2C1` [Example 157], the IC50 in test [1] is 0.1 to 1 µM.

In the case of `COC[C@]1(O)CC[C@]2(Cc3ncccn3)c3cc4cnn(-c5ccc(F)cc5)c4nc3CCC[C@@H]2C1` [Example 159], the IC50 in test [1] was 0.1 to 1 µM.

With `C[C@@]1(O)CC[C@@]2(Cc3ncccn3)c3cc4cnn(-c5ccc(F)cc5)c4nc3CCC[C@H]2C1` [Example 161], in test [1], the IC50 was 0.1 to 1 µM.

Consider `N#CC[C@]1(O)CC[C@]2(Cc3ccccn3)c3cc4cnn(-c5ccc(F)cc5)c4nc3CCC[C@@H]2C1` [Example 164], for which, in test [1], the IC50 is 0.1 to 1 µM.

For the compound `CC[C@]12CC[C@@](OS(N)(=O)=O)(C(F)(F)F)C[C@@H]1CCCc1cc3c(cnn3-c3ccc(F)cc3)cc12` [Example 170, (3S,4aS,12bS)-12b-ethyl-9-(4-fluorophenyl)-3-(trifluoromethyl)-1,2,3,4,4a,5,6,7,9,12b-decahydrobenzo[6,7]cyclohepta[1,2-f]indazol-3-yl sulfamate], the IC50 in test [1] lay within 0.1 to 1 µM.
